From patent US11739098B2 (BRISTOL-MYERS SQUIBB COMPANY, priority 2017, dated 2023)
Counter-ions that a name gives are not always drawn.

Key:
Type in all cases: cell-based
human TLR7 = biological target: T1, human TLR7 (Homo sapiens, UniProt Q9NYK1); test: TLR7 inhibition reporter assay (HEK-Blue cells, SEAP reporter, gardiquimod stimulation); conditions: HEK-Blue cells overexpressing human TLR7, SEAP reporter, gardiquimod 7.5 μM
T1 construct: host or cells: HEK-Blue cells (HEK293-derived reporter line)
T1 sequence (Q9NYK1 27-1049): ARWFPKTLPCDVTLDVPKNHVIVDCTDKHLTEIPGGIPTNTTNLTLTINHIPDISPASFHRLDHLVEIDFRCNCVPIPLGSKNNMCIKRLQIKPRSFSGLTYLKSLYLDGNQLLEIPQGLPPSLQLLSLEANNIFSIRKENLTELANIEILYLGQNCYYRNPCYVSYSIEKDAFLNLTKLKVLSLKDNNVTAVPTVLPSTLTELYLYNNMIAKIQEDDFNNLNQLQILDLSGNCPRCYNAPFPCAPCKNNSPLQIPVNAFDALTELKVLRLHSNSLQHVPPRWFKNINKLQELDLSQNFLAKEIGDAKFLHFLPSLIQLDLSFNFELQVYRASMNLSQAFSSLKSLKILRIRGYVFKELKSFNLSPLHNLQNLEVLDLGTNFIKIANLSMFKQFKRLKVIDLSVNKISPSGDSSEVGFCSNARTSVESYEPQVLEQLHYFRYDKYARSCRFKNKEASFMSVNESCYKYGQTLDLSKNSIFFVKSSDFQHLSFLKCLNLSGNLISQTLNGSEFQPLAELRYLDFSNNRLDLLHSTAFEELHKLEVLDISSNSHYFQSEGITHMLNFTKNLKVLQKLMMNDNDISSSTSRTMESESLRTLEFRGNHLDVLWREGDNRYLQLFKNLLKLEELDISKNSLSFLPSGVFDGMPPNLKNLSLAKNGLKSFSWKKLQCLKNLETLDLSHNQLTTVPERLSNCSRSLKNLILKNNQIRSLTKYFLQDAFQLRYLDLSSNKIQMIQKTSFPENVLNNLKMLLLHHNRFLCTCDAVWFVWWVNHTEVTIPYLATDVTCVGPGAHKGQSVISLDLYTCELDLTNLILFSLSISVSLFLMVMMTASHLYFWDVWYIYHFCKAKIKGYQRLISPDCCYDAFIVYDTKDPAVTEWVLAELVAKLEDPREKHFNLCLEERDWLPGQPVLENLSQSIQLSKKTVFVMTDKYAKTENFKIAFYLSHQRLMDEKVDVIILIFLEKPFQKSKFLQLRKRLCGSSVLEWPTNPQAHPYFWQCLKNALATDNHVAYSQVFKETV
Summary of the method: (§1)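 Cells seeded per well (15000 TLR7, 20,000 TLR8, 25,000 TLR9); compound added over 0.05 nM–50 μM for 30 min at room temperature; agonist added (TLR7 gardiquimod 7.5 μM, TLR8 R848 15.9 μM, TLR9 ODN2006 5 nM); 22 h at 37 °C; SEAP measured; percent inhibition calculated.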

human TLR8 = biological target: T2, human TLR8 (Homo sapiens, UniProt Q9NR97); test: TLR8 inhibition reporter assay (HEK-Blue cells, SEAP reporter, R848 stimulation); conditions: HEK-Blue cells overexpressing human TLR8, SEAP reporter, R848 15.9 μM
T2 construct: host or cells: HEK-Blue cells (HEK293-derived reporter line)
T2 sequence (Q9NR97 27-1041): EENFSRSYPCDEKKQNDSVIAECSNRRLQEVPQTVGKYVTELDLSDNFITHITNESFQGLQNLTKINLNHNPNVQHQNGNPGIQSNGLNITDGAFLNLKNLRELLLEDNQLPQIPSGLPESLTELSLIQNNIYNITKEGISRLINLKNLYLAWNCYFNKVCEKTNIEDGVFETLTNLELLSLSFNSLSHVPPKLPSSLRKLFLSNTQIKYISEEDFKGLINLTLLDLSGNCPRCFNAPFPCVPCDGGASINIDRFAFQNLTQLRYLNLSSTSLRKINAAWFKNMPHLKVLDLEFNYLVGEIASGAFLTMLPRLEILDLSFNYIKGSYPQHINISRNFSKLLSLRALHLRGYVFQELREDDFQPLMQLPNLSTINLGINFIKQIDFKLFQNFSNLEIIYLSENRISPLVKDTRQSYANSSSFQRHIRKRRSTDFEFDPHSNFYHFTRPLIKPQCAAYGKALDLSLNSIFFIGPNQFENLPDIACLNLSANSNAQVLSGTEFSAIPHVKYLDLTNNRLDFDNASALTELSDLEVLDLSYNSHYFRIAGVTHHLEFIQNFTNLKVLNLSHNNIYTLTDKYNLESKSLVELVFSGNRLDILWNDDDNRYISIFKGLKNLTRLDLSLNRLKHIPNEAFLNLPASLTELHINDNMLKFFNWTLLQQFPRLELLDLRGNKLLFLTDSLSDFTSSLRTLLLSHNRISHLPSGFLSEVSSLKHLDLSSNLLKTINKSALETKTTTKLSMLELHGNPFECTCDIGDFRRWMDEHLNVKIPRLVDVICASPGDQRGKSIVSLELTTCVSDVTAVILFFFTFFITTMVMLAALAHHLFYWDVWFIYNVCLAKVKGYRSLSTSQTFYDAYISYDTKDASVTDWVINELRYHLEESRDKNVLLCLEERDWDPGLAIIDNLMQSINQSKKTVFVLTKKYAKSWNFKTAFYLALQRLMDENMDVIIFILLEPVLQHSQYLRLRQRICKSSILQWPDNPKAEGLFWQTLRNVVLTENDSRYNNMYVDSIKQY
Summary of the method: as §1

human TLR9 = biological target: T3, human TLR9 (Homo sapiens, UniProt Q9NR96); test: TLR9 inhibition reporter assay (HEK-Blue cells, SEAP reporter, ODN2006 stimulation); conditions: HEK-Blue cells overexpressing human TLR9, SEAP reporter, ODN2006 5 nM
T3 construct: host or cells: HEK-Blue cells (HEK293-derived reporter line)
T3 sequence (Q9NR96 26-1032): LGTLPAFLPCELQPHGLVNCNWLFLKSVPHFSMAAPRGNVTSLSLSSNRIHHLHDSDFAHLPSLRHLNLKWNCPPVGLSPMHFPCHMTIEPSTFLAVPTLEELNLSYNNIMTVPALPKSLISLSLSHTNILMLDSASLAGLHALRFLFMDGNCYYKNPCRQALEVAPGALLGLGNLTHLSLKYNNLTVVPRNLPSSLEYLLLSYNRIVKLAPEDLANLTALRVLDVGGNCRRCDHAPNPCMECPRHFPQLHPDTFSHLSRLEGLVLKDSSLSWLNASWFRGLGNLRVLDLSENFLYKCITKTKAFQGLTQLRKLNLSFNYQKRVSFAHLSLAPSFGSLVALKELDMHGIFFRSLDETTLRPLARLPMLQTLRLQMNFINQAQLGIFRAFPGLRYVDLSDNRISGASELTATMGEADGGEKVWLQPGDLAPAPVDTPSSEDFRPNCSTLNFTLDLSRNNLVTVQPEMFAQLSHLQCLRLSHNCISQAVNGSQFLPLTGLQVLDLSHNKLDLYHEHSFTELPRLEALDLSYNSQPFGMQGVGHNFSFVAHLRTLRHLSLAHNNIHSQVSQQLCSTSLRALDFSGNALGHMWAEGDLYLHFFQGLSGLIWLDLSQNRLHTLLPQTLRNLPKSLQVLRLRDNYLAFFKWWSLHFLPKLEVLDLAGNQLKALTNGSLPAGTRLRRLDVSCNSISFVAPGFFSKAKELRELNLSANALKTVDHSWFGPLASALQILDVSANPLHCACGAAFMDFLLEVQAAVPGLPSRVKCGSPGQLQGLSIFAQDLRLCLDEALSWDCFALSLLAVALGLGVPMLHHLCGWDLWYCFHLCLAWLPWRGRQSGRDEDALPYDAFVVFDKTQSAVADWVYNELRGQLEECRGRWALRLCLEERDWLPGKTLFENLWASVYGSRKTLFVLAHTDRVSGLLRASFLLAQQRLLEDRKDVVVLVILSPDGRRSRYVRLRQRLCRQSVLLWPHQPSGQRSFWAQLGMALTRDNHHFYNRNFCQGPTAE
Summary of the method: as §1

| Compound | IC50 (human TLR7) [nM] | IC50 (human TLR8) [nM] | IC50 (human TLR9) [nM] |
| --- | --- | --- | --- |
| CNCC(=O)N1CCC(c2ccc3[nH]c(-c4cc(C(F)(F)F)c5nccn5c4)c(C(C)C)c3c2)CC1 [Example 508, 1-(4-(3-isopropyl-2-(8-(trifluoromethyl)imidazo[1,2-a]pyridin-6-yl)-1H-indol-5-yl)piperidin-1-yl)-2-(methylamino)ethan-1-one] | < 100 | 100 to 1000 | 100 to 1000 |
| Cc1c(-c2ncnc3[nH]ccc23)[nH]c2ccc(C3CCN(C4CCN(C(C)C)CC4)CC3)cc12 [Example 814, 4-(5-(1′-isopropyl-[1,4′-bipiperidin]-4-yl)-3-methyl-1H-indol-2-yl)-7H-pyrrolo[2,3-d]pyrimidine] | 100 to 1000 | < 100 | < 100 |
| Cc1cc(-c2[nH]c3ccc(C4CCN(CC(C)(C)O)CC4)cc3c2C(C)C)cn2nnnc12 [Example 745, 1-(4-(3-isopropyl-2-(8-methyltetrazolo[1,5-a]pyridin-6-yl)-1H-indol-5-yl)piperidin-1-yl)-2-methylpropan-2-ol, TFA] | < 100 | < 100 | 1000 to 50000 |
| CCOc1cc(-c2[nH]c3ccc(C4CCN(C(=O)CN(C)C)CC4)cc3c2C(C)C)cc2ncnn12 [Example 498, 2-(dimethylamino)-1-(4-(2-(5-ethoxy-[1,2,4]triazolo[1,5-a]pyridin-7-yl)-3-isopropyl-1H-indol-5-yl)piperidin-1-yl)ethan-1-one] | < 100 | < 100 | 100 to 1000 |
| CC(C)c1c(-c2ccc3ncnn3n2)[nH]c2ccc(C3CCN(C4COC4)CC3)cc12 [Example 729, 6-(3-isopropyl-5-(1-(oxetan-3-yl)piperidin-4-yl)-1H-indol-2-yl)-[1,2,4]triazolo[1,5-b]pyridazine] | < 100 | 100 to 1000 | 1000 to 50000 |
| Cc1cn2cc(-c3[nH]c4ccc(C5CCN(C(=O)CN(C)C)CC5)cc4c3CC(F)F)ccc2n1 [Example 551, 1-(4-(3-(2,2-difluoroethyl)-2-(2-methylimidazo[1,2-a]pyridin-6-yl)-1H-indol-5-yl)piperidin-1-yl)-2-(dimethylamino)ethan-1-one] | < 100 | > 3130 | 100 to 1000 |
| Cc1cc(-c2[nH]c3ccc(C4CCN(C(=O)CN5CCCC5)CC4)cc3c2C(C)C)cn2nnnc12 [Example 470, 1-(4-(3-isopropyl-2-(8-methyltetrazolo[1,5-a]pyridin-6-yl)-1H-indol-5-yl)piperidin-1-yl)-2-(pyrrolidin-1-yl) ethan-1-one] | < 100 | < 100 | 1000 to 50000 |
| COc1cc(-c2[nH]c3ccc(C4CCN(CCNS(C)(=O)=O)CC4)cc3c2C(C)C)nn2ncnc12 [Example 652, N-(2-(4-(3-isopropyl-2-(8-methoxy-[1,2,4]triazolo[1,5-b]pyridazin-6-yl)-1H-indol-5-yl)piperidin-1-yl)ethyl)methanesulfonamide] | < 100 | < 100 | 1000 to 50000 |
| Cc1cc2nnnn2cc1-c1[nH]c2ccc(C3CCN(CCS(C)(=O)=O)CC3)cc2c1C(C)C [Example 790, 6-(3-isopropyl-5-(1-(2-(methylsulfonyl)ethyl)piperidin-4-yl)-1H-indol-2-yl)-7-methyltetrazolo[1,5-a]pyridine] | < 100 | < 100 | 1000 to 50000 |
| COc1c(C)c(-c2[nH]c3ccc(C4CCN(CC(=O)N(C)C)CC4)cc3c2C(C)C)nn2ncnc12 [Example 282, 2-(4-(3-isopropyl-2-(8-methoxy-7-methyl-[1,2,4]triazolo[1,5-b]pyridazin-6-yl)-1H-indol-5-yl)piperidin-1-yl)-N,N-dimethylacetamide] | < 100 | < 100 | 1000 to 50000 |
| CNCC(=O)N1CCC(c2ccc3[nH]c(-c4cc(F)c5nccn5c4)c(CC(F)F)c3c2)CC1 [Example 545, 1-(4-(3-(2,2-difluoroethyl)-2-(8-fluoroimidazo[1,2-a]pyridin-6-yl)-1H-indol-5-yl)piperidin-1-yl)-2-(methylamino)ethan-1-one] | < 100 | 1000 to 50000 | 100 to 1000 |
| Cc1c(-c2[nH]c3ccc(C4CCN(C(=O)CN(C)C)CC4)cc3c2C(C)C)cn2ccnc2c1C [Example 549, 2-(dimethylamino)-1-(4-(2-(7,8-dimethylimidazo[1,2-a]pyridin-6-yl)-3-isopropyl-1H-indol-5-yl)piperidin-1-yl)ethan-1-one] | < 100 | < 100 | 100 to 1000 |
| CNC(=O)CN1CCC(c2ccc3[nH]c(-c4cc(C)n5cc(C)nc5c4)c(C(C)C)c3c2)CC1 [Example 352, 2-(4-(2-(2,5-dimethylimidazo[1,2-a]pyridin-7-yl)-3-isopropyl-1H-indol-5-yl)piperidin-1-yl)-N-methylacetamide] | 100 to 1000 | 100 to 1000 | 100 to 1000 |
